One assay concerns C6 xenograft. Put plainly: C6 subcutaneous xenograft nude mouse model. The assay is classed as in vivo. The conditions noted are these: nude mice, i.p. twice per week; NAZ2329 45 µmol (22.5 mg)/kg, TMZ 50 mg/kg; vehicle 17 days. Here is the method: Figure 10 Antitumor effects of NAZ2329 on the C6 mouse xenograft model. (A) Nude mice were subcutaneously implanted with C6 cells (5 × 10^6 cells), and tumor size was monitored until the criteria were met (>150 mm^3). At this time, mice were randomly divided into 4 treatment groups. DMSO as the vehicle control (n = 7), NAZ2329 (45 µmol (22.5 mg)/kg body weight, n = 9), temozolomide (TMZ, 50 mg/kg, n = 9), and the combination of NAZ2329 (45 µmol/kg) with TMZ (50 mg/kg) (n = 9) were administered intraperitoneally twice per week until the humane endpoint (>3,000 mm^3 tumor size or 40 days after the treatment). Tumor growth in each animal and the number of days required to reach a tumor volume of 3,000 mm^3 are shown in the graph. Five mice were sacrificed due to tumor necrosis (shown by gray symbols in the graph), and two mice unexpectedly died suddenly during the observation period (black symbols in the graph).
Parental or Ptprz-knockdown C6 cells (5 × 10^6 cells) suspended in a volume of 100 µl were subcutaneously injected into the left hind limbs of BALB/c-nu/nu mice (females, 4 weeks old mice were purchased from Japanese Charles River Co. Ltd.). Tumor growth was measured with calipers and calculated by the formula: volume = length × width × width × 0.5, as previously described. The drug treatment initiated when the tumor size reached 150 mm^3. […]

For a further assay, the target named is T1, PTPRG V1038F (Homo sapiens, UniProt P23470, V1038F).
T1 construct: Point mutants of the PTPRZ1-ICR, PTPRG-ICR, and PTPN1 catalytic domain were generated; GST (N); made in house
The experiment in a line: Inhibitor sensitivity of point mutant PTPRG V1038F. The format is biochemical. The note with it: 10 µM, vs wild-type PTPRG. The source says: Figure 5 Structural basis for PTPRZ inhibition of NAZ2329. (A) An enlarged view of the X-ray structure of human PTPRZ1-D1 complexed with NAZ2329 (PDB ID: 5H08) (left), X-ray structure of the apo (open) form of PTPRZ1-D1 (PDB ID: 5AWX, ref. [6], middle) and a computer-modeled structure of the closed form of PTPRZ1-D1 complexed with a competitive inhibitor, SCB4380 (ref. [6], right), are shown. PTPRZ1-D1 is shown as a gray surface representation, in which Cys1933 at the active site and Val-1911 at the bottom of the allosteric pocket are indicated in red and yellow, respectively. Inhibitors are colored according to the atomic species in a stick figure representation as follows: oxygen (red), nitrogen (blue), sulfur (yellow), and carbon (green). The bottom figures show the conformation of the WPD loop (orange) as cartoon representations, in which Asp1901 and Cys1933 are indicated by orange and red spheres, respectively. Side chains of Arg1939 at the active site, Met1902 in the WPD loop, and Val-1911 at the bottom of the allosteric binding area are also shown in the stick representation. (B) LigPlot representation of the NAZ2329 interaction with PTPRZ1-D1. The predicted hydrogen bonds (broken black lines) and residues (red spoked arcs) involved in the hydrophobic interaction are shown. […]

For another assay, the system named is human U251 cells. Put plainly: Cellular effects in U251 cells. The assay is classed as cell-based. The note with it: proliferation, migration, SOX2 (Supplementary Fig. S4). Here is the method:
This assay was performed as described previously. Briefly, cells were preincubated with compounds for 30 min, and then transferred onto a laminin-coated transwell insert in which the lower chambers contained epidermal growth factor (EGF, #E9644, Sigma-Aldrich). Cells were allowed to migrate for 3 h, and the number of cells that migrated to the lower surface was counted under a conventional fluorescence microscope.
Cells (3 × 10^4 cells) were inoculated into a 24-well plastic tissue culture plate with 500 µl of DMEM supplemented with 2% FBS and the indicated compounds for 48 h. Cells were harvested by trypsinization and then manually counted with a hemacytometer.
Cells were inoculated at 5 × 10^3 cells per 96-well uncoated polystyrene plate (# 9018, Corning) or 5 × 10^4 cells per 35-mm plastic petri dish (#351008, Corning), and cultured in a serum-free medium containing DMEM/F12 with 1x B27 supplement (#17504044, Thermo Fisher Scientific), EGF (20 ng/ml), and basic fibroblast growth factor (bFGF, 20 ng/ml, #064-05381, Wako pure chemical). After a 7-day culture, cells were fixed with 10% neutral formalin and pictured under a conventional microscope. The number of spheroids of approximately 70 µm in diameter were counted manually using Adobe Photoshop CS6 (Adobe).

Each structure is given as a SMILES string.

T1 sequence (P23470 763-1445 V1038F limits assumed): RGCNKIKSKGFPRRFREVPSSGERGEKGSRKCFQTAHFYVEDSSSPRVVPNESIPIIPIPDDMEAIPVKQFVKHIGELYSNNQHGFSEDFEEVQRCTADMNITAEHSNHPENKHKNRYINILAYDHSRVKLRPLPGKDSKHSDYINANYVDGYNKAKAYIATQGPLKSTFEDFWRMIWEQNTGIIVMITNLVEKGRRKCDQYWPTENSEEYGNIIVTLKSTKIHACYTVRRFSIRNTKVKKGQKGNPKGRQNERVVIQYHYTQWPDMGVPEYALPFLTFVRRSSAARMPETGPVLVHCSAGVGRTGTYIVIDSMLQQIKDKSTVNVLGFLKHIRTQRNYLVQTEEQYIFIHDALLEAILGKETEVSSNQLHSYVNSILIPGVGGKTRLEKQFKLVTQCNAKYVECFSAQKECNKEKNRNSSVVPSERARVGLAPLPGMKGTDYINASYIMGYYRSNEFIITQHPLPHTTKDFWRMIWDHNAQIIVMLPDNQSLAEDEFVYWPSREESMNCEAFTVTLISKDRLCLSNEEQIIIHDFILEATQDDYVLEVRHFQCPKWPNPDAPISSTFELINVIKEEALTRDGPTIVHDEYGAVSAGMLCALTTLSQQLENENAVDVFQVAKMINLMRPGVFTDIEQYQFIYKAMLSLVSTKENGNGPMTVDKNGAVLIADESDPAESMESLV

For `CCOc1ccc(C(F)(F)F)cc1CSc1ccsc1C(=O)NS(=O)(=O)c1ccccc1` [NAZ2329], in the assay on C6 xenograft, the “median day for the tumor size to reach 3,000 mm^3” value amounted to 25 days. Further, the “effect of V1038F mutation on sensitivity to inhibitor” value at PTPRG V1038F was “resulted in resistance”. The “cellular effects in U251 cells compared with C6 cells” value in the assay on human U251 cells is recorded as “exerted similar effects”.

For the origin of these results see publication PMC5514153, “Targeting PTPRZ inhibits stem cell-like properties and tumorigenicity in glioblastoma cells” (Scientific Reports, 2017).
